The target of test [1] is T1, JMJD6Δ363‐403.Zn(II).2OG complex (Homo sapiens, UniProt Q6NYC1).
T1 construct: made in house
The test can be described thus: Ligand-observed CPMG-edited 1H NMR 2OG displacement assay from JMJD6Δ363‐403.Zn(II).2OG complex. The conditions noted are these: for Kd: 1H NMR, 60 µM EDTA-treated JMJD6, 200 µM Zn(II), 20 µM 2OG, 50 mM Tris-D11 pH 7.0, 10% D2O, mean ± SD (n=3), read-out: KD app (apparent binding constant) (converted); for extent of 2OG displacement from JMJD6Δ363‐403.Zn(II).2OG complex (in words): initial screen, fixed inhibitor concentration (400 µM ligand), Figure S6. Format: binding. The text has this:
We investigated whether the inhibitors compete for binding to JMJD6^Δ363‐403, using ^1H NMR to investigate the extent to which they displace 2OG from the JMJD6^Δ363‐403.Zn(II).2OG complex, initially with a fixed inhibitor concentration (Figure S6).[21, 22]
Figure S6: 2OG displacement ligand-binding assays with JMJD6 using CPMG-edited 1H NMR. Bar charts show the extent of 2OG displacement for: (A) TCA cycle intermediates, (B) 2OG mimetics, (C) PHD inhibitors, (D) tricarbonyl type compounds, (E) KDM inhibitors. Conditions: 60 µM EDTA-treated JMJD6∆363-403, 200 µM Zn(II), 10 µM 2OG, and 400 µM of the ligand, all in 50 mM Tris-D11, pH 7.0 in 10% D2O. Values represent the mean (n = 3) ± standard deviation (SD). Eq DMSO: DMSO control without inhibitor.
Figure S7: KDapp determination for TCA cycle intermediates / related compounds binding to JMJD6. Plots used for the determination of KDapp values of (A) fumarate and (B) […]
succinate. […] Conditions: 60 µM
EDTA-treated JMJD6, 200 µM Zn(II), 20 µM 2OG, 0-400 µM ligand, all in 50 mM Tris-D11 pH 7.0 in 10% D2O. Values represent the mean ± SD (n = 3). Compound structures are […]
Figure S8: KDapp determination for pyridine derivative binding to JMJD6. Plots used for determination of KDapp values (A) 2,4-PDCA and (B) 2,4-BPDCA.
Conditions: 60 µM EDTA-treated
D2O. Values represent the mean ± SD (n = 3).
Figure S9: KDapp determination for PHD inhibitor binding to JMJD6. Plots used for the determination of KDapp value (A) AKB-6899 and (B) Vadadustat.
Conditions: 60 µM EDTA-treated JMJD6,
Values represent the mean ± SD (n = 3).
Conditions for NMR assays
NMR was used to measure 2OG displacement from JMJD6 caused by inhibitors according to the method of Leung et al. The Carr-Purcell-Meiboom-Gill (CPMG) pulse sequence coupled with periodic refocusing of J evolution by coherence transfer (PROJECT) method was applied for spectral editing was used to edit out protein signals. In the initial screen […]
2OG and 400 µM inhibitor; the 1H NMR-spectra of 2OG were then analysed. To determine the apparent binding constant (KDapp), 20 µM of 2OG was titrated against increasing concentrations of JMJD6Δ363-403 in the presence of Zn(II) [JMJD6∆363-403.Zn(II)]. Thus, JMJD6∆363-403.Zn(II) was added until the methylene signals of 2OG were no longer observed, indicating complete 2OG binding to JMJD6. The extent of 2OG (%) bound to JMJD6Δ363-403 was calculated and the values were plotted against the concentration of JMJD6Δ363-403 using OriginTM. The KDapp of 2OG was calculated as reported.[11] To determine the KDapp for the inhibitor, the recovery of 2OG-signals was monitored in the presence of varied concentrations of inhibitor (0-800 µM).
% 2OG Displacement = x 100 […]
where, I2OG is the integral of the 2OG 1H signal in the presence of both inhibitor and JMJD6∆363-403.Zn(II)], I2OG(0) is the integral of 2OG in the presence of JMJD6∆363-403.Zn(II)] without inhibitor, I2OG(blank) is the integral of 2OG in the absence of both JMJD6∆363-403.Zn(II)] and inhibitor, ∆obs is the change in the integral of 2OG resulting from titration, ∆max represents the maximum change of the monitored NMR parameter (2OG integral), [L]0 is the titrated ligand concentration, and [P]0 is the JMJD6∆363-403concentration. 5-10% error was typically allowed in the curve fitting process.

The target of test [2] is T2, JMJD6Δ363‐403 (Homo sapiens, UniProt Q6NYC1).
T2 construct: made in house
Put plainly: MALDI-TOF MS assay of JMJD6-catalysed lysine hydroxylation of LUC7L2 267-278 peptide. Format: biochemical. Conditions: for IC50: n=3, 10 μM JMJD6Δ363‐403, 100 μM LUC7L2 267‐278, 100 μM Fe(II), 400 μM L-sodium ascorbate, 20 μM 2OG, inhibitor 0–10 mM; for potency of JMJD6 inhibition (in words): MS assay. The text has this: Initially, we used the MS assay to screen a range of potential JMJD6 inhibitors, based on scaffolds identified as inhibitors of other 2OG oxygenases, grouped into: (i) TCA cycle and related acidic compounds; (ii) 2OG mimics / broad spectrum 2OG oxygenase inhibitors; (iii) PHD inhibitors in clinical use / investigation; (iv) tricarbonyl type compounds, which are known iron oxygenase inhibitors; (v) reported inhibitors of the JmjC KDMs.[23]
Figure S1. Initial inhibition assays. Bar charts showing extent of JMJD6 inhibition by 0.1, 1, and 10 mM compound: (A) TCA cycle intermediates/related compounds, (B) 2OG analogues, (C) PHD inhibitors, (D) Tricarbonyl type compounds, (E) JmjC KDM inhibitors.
Values represent the mean ± SD (n = 3). Conditions: 10 µM JMJD6Δ363-403 (prepared as […]
reported) and 100 µM LUC7L2267-278 ([…], with a C-terminal amide) at 37 °C in 50 mM HEPES pH 7.5 buffer with 100 µM (NH4)2Fe(SO4)2.6H2O (Sigma-Aldrich), […]
varied inhibitor concentrations (0-10 mM). Reactions were quenched and products analysed by MALDI-TOF MS following a reported procedure.[11]
(1 picture or pasted object on this page, not shown here)

Each structure is given as a SMILES string. “Also recorded” adds a separate entry of the source. Like-named read-outs stand apart in the source and are kept apart here. Some results are limits rather than exact numbers.

As usually defined, the IC50 is the concentration that inhibits the measured activity by half. Regarding `O=C(O)c1ccnc(-c2cc(C(=O)O)ccn2)c1` [2,4 BPDCA, 2,2’‐bipyridine‐4,4’‐dicarboxylate, reference compound], in test [1], the Kd was 7 µM and the “extent of 2OG displacement from JMJD6Δ363‐403.Zn(II).2OG complex (in words)” value is “most efficiently displaced 2OG”. In addition, the IC50 in test [2] (mean±SD, read-out: IC50) came out at 6 ± 1.6 µM.
For `O=C(O)c1ccnc(C(=O)O)c1` [2,4 PDCA, pyridine‐2,4‐dicarboxylate, reference compound], in test [1], the Kd was 6 µM and the “extent of 2OG displacement from JMJD6Δ363‐403.Zn(II).2OG complex (in words)” value is reported as “most efficiently displaced 2OG”. In addition, the half-inhibitory concentration (IC50) in test [2] (mean±SD, read-out: IC50) was found to be 13 ± 1.3 µM.
For the molecule `O=C(O)CNC(=O)c1ncc(-c2cccc(F)c2)cc1O` [AKB‐6899], in test [1], the Kd was 3 µM and the “extent of 2OG displacement from JMJD6Δ363‐403.Zn(II).2OG complex (in words)” value is on record as “most efficiently displaced 2OG”. Also, the half-inhibitory concentration (IC50) in test [2] (mean±SD, read-out: IC50) is 9 ± 1.5 µM.
For `O=C(O)CC(O)(CC(=O)O)C(=O)O` [Citrate], the IC50 in test [2] (mean±SD, read-out: IC50) came to 987 ± 1.3 µM.
Take `CN(C)NC(=O)CCC(=O)O` [Daminozide, reference compound]: in test [2] (IC50, mean±SD), inhibition was half-maximal at 94 ± 1.5 µM (IC50).
`O=C(O)CC[C@@H](O)C(=O)O` [D‐2HG, 2‐hydroxyglutarate]: the half-inhibitory concentration (IC50) in test [2] (mean±SD, read-out: IC50) was found to be 622 ± 1.4 µM.
Turning to `Cc1nc(C(=O)NCC(=O)O)c(O)c2ccc(Oc3ccccc3)cc12` [FG‐4592, reference compound], the half-inhibitory concentration (IC50) in test [2] (mean±SD, read-out: IC50) was 23 ± 1.5 µM.
As for `O=C(O)/C=C/C(=O)O` [Fumarate], in test [1], the Kd is 109 µM and the “extent of 2OG displacement from JMJD6Δ363‐403.Zn(II).2OG complex (in words)” value is “most efficiently displaced 2OG”. Also, the “potency of JMJD6 inhibition (in words)” value in test [2] is “most potent of these compounds”. Also, the IC50 in test [2] (mean±SD, read-out: IC50) was 165 ± 1.4 µM.
In turn, `O=C(O)CNC(=O)c1c(O)n(C2CCCCC2)c(=O)n(C2CCCCC2)c1=O` [GSK1278863, reference compound] gave an IC50 in test [2] (IC50, mean±SD) of 10 ± 1.2 µM.
As to `O=C(O)c1ccc(O)c2ncccc12` [IOX1, 5‐carboxy‐8‐hydroxyquinoline, reference compound], the half-maximal inhibitory concentration (IC50) in test [2] (mean±SD, read-out: IC50) is 10 ± 1.5 µM.
As to `O=C(O)CC[C@H](O)C(=O)O` [L‐2HG, 2‐hydroxyglutarate], the IC50 in test [2] (mean±SD, read-out: IC50) amounted to 871 ± 1.5 µM.
The same measure, in the same setting: under `O=C(O)CC(O)C(=O)O` (centres unmarked) [Malate] stands 5103 ± 2 µM; under `O=c1c(-n2ccnn2)c[nH]n1-c1cc(N2CCOCC2)ncn1` [Molidustat, reference compound], 74 ± 1.6 µM.
As to `O=C(O)CNC(=O)C(=O)O` [NOG, N‐oxalylglycine, reference compound], the “extent of 2OG displacement from JMJD6Δ363‐403.Zn(II).2OG complex (in words)” value in test [1] was “only weakly displaced 2OG”. Besides, in test [2], the “potency of JMJD6 inhibition (in words)” value is listed as “poor inhibitor; also recorded: not a potent JMJD6 inhibitor”. Further, the IC50 in test [2] (mean±SD, read-out: IC50) turned out to be 296 ± 1.9 µM.
For the molecule `O=C(O)CC(=O)C(=O)O` [Oxaloacetate], in test [2] (mean±SD, read-out: IC50), the IC50 is 204 ± 2 µM.
Turning to `CC(=O)C(=O)O` [Pyruvate], in test [2] (mean±SD, read-out: IC50), the 50% inhibitory concentration (IC50) was determined as 2377 ± 1.7 µM.
As for `O=C(O)CCC(=O)O` [Succinate], in test [1], the Kd is 159 µM and the “extent of 2OG displacement from JMJD6Δ363‐403.Zn(II).2OG complex (in words)” value is “most efficiently displaced 2OG”. The IC50 in test [2] (mean±SD, read-out: IC50) is 261 ± 2.3 µM.
On to `O=C(O)CNC(=O)c1ncc(-c2cccc(Cl)c2)cc1O` [Vadadustat], for which, in test [1], the Kd was 14 µM and the “extent of 2OG displacement from JMJD6Δ363‐403.Zn(II).2OG complex (in words)” value is listed as “most efficiently displaced 2OG”. Moreover, the half-inhibitory concentration (IC50) in test [2] (mean±SD, read-out: IC50) was 7 ± 1.6 µM.
Regarding `O=C(O)CNC(=O)CNC(=O)C(=O)O` [compound 1], the half-inhibitory concentration (IC50) in test [2] (mean±SD, read-out: IC50) is 189 ± 1.5 µM.
As to `O=C(O)c1ccnc2c(O)cccc12` [compound 2], the IC50 in test [2] (mean±SD, read-out: IC50) came to 5 ± 1.3 µM.
Consider `O=C(O)CCC(=O)NO` [compound 3], for which the concentration for half-maximal inhibition (IC50) in test [2] (mean±SD, read-out: IC50) stood at 25 ± 2 µM.
In test [2] (IC50, mean±SD), `CCOC(=O)CNC(=O)c1c(O)n(C2CCCCC2)c(=O)n(C2CCCCC2)c1=O` [compound 4] had an IC50 of 175 ± 1.5 µM.
As for `O=C(O)CNC(=O)c1c(O)[nH]c(=O)[nH]c1=O` [compound 5], in test [2] (IC50, mean±SD), it took 19 ± 1.3 µM to reach half-maximal inhibition (IC50).
Consider `Cn1c(O)c(C(=O)NCC(=O)O)c(=O)n(C)c1=O` [compound 6], for which, in test [2] (IC50, mean±SD), the IC50 came to 23 ± 1.2 µM.
In turn, `Cn1c(O)c(C(=O)CCc2ccccc2)c(=O)n(C)c1=O` [compound 7] yielded a 50% inhibitory concentration (IC50) in test [2] (IC50, mean±SD) of 43 ± 1.1 µM.
With `Cn1c(O)c(C(=O)CCc2cccs2)c(=O)n(C)c1=O` [compound 8], half-maximal inhibition in test [2] (IC50, mean±SD) (IC50) required 27 ± 1.4 µM.
`CCn1c(O)c(C(=O)CCC2CCCC2)c(=O)n(CC)c1=O` [compound 9] gave a 50% inhibitory concentration (IC50) in test [2] (IC50, mean±SD) of at least 1000 µM.
For the molecule `O=C(CCC1CCCC1)c1c(O)n(C2CCCCC2)c(=O)n(C2CCCCC2)c1=O` [compound 10], in test [2] (IC50, mean±SD), the 50% inhibitory concentration (IC50) is at least 1000 µM.
Same read-out and setting: as for `Cn1c(O)c(C(=O)CCC2CCCC2)c(=O)n(C)c1=O` [compound 11], the figure is 67 ± 1.2 µM; as for `COc1ccccc1CCC(=O)c1c(O)n(C)c(=O)n(C)c1=O` [compound 12], 58 ± 1.4 µM.
In test [2] (IC50, mean±SD), `COc1cccc(CCC(=O)c2c(O)n(C)c(=O)n(C)c2=O)c1` [compound 13] had an IC50 of 135 ± 1.3 µM.
For `Cn1c(O)c(C(=O)CCC2CC2)c(=O)n(C)c1=O` [compound 14], the half-inhibitory concentration (IC50) in test [2] (IC50, mean±SD) came out at 163 ± 1.3 µM.
For the molecule `Cn1c(O)c(C(=O)CCc2ccsc2)c(=O)n(C)c1=O` [compound 15], the IC50 in test [2] (IC50, mean±SD) was at least 1000 µM.
The molecule `CC(Cc1ccsc1)C(=O)c1c(O)n(C)c(=O)n(C)c1=O` (centres unmarked) [compound 16] yielded a half-maximal inhibitory concentration (IC50) in test [2] (IC50, mean±SD) of 214 ± 1.4 µM.
Turning to `CC(Cc1ccsc1)C(=O)c1c(O)n(C)c(=O)n(C)c1=O` (centres unmarked) [compound 17], half-maximal inhibition in test [2] (IC50, mean±SD) (IC50) was put at 22 ± 1.4 µM.

Values taken from publication PMC9299220, “Inhibition of JMJD6 by 2‐Oxoglutarate Mimics” (Chemmedchem, 2021).
